Where two headings read alike, the source gives them in different places.
How the values were obtained:
[1] = Baboon plasma analyses (total plasma radioactivity clearance and unchanged radioligand); conditions: for remaining at 40 s / remaining at 4 min / remaining at 10 min / remaining at 0.5 h / remaining at 1 h / remaining at 2 h / remaining at 3 h / remaining at 4 h: plasma; for remaining at 40 s: 0.67 min after injection; for remaining at 4 min: 4.0 min after injection; for remaining at 0.5 h: 30 min after injection; for remaining at 1 h: 60 min after injection; for remaining at 2 h: 120 min after injection; for remaining at 3 h: 180 min after injection; for remaining at 4 h: 240 min after injection
From the text: (§1) A young adult (12 kg) female baboon (Papio anubis) was anesthesized initially with ketamine and subsequently maintained under halothane/nitrous oxide anesthesia for two PETT studies. […] Pett scans were made continually for 4 hrs from the time of radioisotope injection.
Blood was sampled from the femoral artery at initial intervals of 5 secs. Aliquots of plasma were counted to determine the total plasma radioactivity of clearance curves.

[2] = system: dopamine receptors; assay: PETT baboon studies: striatum and cerebellum radioactivity after i.v. [^18 F]-N-methylspiroperidol, with (-)- or (+)-butaclamol pretreatment
From the text: as §1

[3] = Tissue distribution of radioactivity in mice; assay type: in vivo, mouse; conditions: for tissue uptake at 5 min / tissue uptake at 1 h / tissue uptake at 2 h: read-out: Tissue distribution, % Dose/g
From the text: As noted in Example 3 for the rat, the mouse brain uptake of radioactivity was higher for radiolabeled N-methylspiroperidol (1.1% of the administered dose).

[4] = Metabolic stability and uptake in rat brain (striatum, cerebellum); assay type: in vivo, rat (male BNL R strain); conditions: for remaining at 1 h / remaining at 4 h: iv, n = 2; for remaining at 1 h: 1 h after injection; for remaining at 4 h: 4 h after injection
[5] = baboon, iv, % [^18 F]-N-Methylspiroperidol in Plasma, baboon plasma
[6] = baboon, iv, % of ^18 F in CH3 CN as [^18 F]-N-Methylspiroperidol, baboon plasma

With CN1CN(c2ccccc2)C2(CCN(CCCC(=O)c3ccc([18F])cc3)CC2)C1=O [[^18 F]-N-methylspiroperidol] the “time course of distribution compared with [^18 F]spiroperidol” value ([1]; Example 2) was “more rapid”, the “appearance of peripheral radioactive metabolites compared with [^18 F]spiroperidol” value ([1]; baboon plasma) was “more rapid” and the “time for blood radioactivity to drop below the brain concentration” value ([1]; baboon, after injection) was no more than 90 s. The remaining at 40 s [1, 5] was 81%, the remaining at 4 min [1, 5] was 66% and the remaining at 10 min ([1]; baboon, iv, % [^18 F]-N-Methylspiroperidol in Plasma, baboon plasma, 10 min after injection) was 43%. It also gave a remaining at 0.5 h [1, 5] of 18%, a remaining at 1 h [1, 5] of 18% and a remaining at 2 h [1, 5] of 11%. For the same molecule, the remaining at 3 h [1, 5] was 11%, the remaining at 4 h [1, 5] was 9.4% and the remaining at 40 s [1, 6] was 88%. The remaining at 4 min [1, 6] was 78%, the remaining at 10 min ([1]; baboon, iv, % of ^18 F in CH3 CN as [^18 F]-N-Methylspiroperidol, baboon plasma, 10 min after injection) was 60% and the remaining at 0.5 h [1, 6] was 32%. It also gave a remaining at 1 h [1, 6] of 36%, a remaining at 2 h [1, 6] of 26% and a remaining at 3 h [1, 6] of 29%. For the same molecule, the remaining at 4 h [1, 6] was 26%, the remaining at 10 min ([1]; baboon, plasma radioactivity due to unaltered radioligand, baboon plasma, 10 mins after injection) was 43% and the blood clearance ([1]; baboon, total plasma radioactivity) was “very rapid”. For the same molecule, the “specifically bound component of radioactivity in the striatum (striatum minus cerebellum)” value ([2]; 4 hrs after injection) was “still increasing at 4 hrs after injection”, the “striatum and cerebellum radioactivity curves, access to specific binding sites” value ([2]; after 0.5 mg/kg (+)-butaclamol pretreatment) was “no longer had access to specific binding sites” and the “radioactivity in the cerebellum” value ([2]; after the first few minutes, control study) was “declined rapidly in the cerebellum”. For the same molecule, the “absolute striatal uptake, excess over [^18 F]spiroperidol” value ([2]; control study, (-)-butaclamol 0.5 mg/kg pretreatment) was “more than two-fold”, the “Influx into striatum and cerebellum” value ([2]; first few minutes, control study) was “equal for the first few minutes” and the “radioactivity in the striatum” value ([2]; up to 4 hrs, control study) was “increasing for up to 4 hrs in the striatum”. For the same molecule, the “tissue distribution of radioactivity compared with that reported for N-[^11 C] methylspiroperidol” value ([3]; mouse) was “very little difference”, the tissue uptake at 5 min ([3]; mouse blood, 5 min, mean of three mice, range 1.0-1.5) was 1.2 %ID/g and the tissue uptake at 1 h ([3]; mouse blood, 60 min, mean of three mice, range 0.40-0.50) was 0.45 %ID/g. For the same molecule, the tissue uptake at 2 h ([3]; mouse blood, 120 min, mean of four mice, range 0.15-0.27) was 0.19 %ID/g, the “mouse brain uptake of radioactivity” value ([3]; mouse brain) was 1.1 % of the administered dose and the “Tissue distribution, % Dose/Organ” value ([3]; mouse brain, 5 min, mean of three mice, range 1.0-1.1) was 1.1 % Dose/Organ. For the same molecule, the tissue uptake at 5 min ([3]; mouse brain, 5 min, mean of three mice, range 2.2-2.4) was 2.3 %ID/g, the “Tissue distribution, % Dose/Organ” value ([3]; mouse brain, 60 min, mean of three mice, range 0.60-0.74) was 0.68 % Dose/Organ and the tissue uptake at 1 h ([3]; mouse brain, 60 min, mean of three mice, range 1.3-1.8) was 1.5 %ID/g. The “Tissue distribution, % Dose/Organ” value ([3]; mouse brain, 120 min, mean of four mice, range 0.43-0.68) was 0.57 % Dose/Organ, the tissue uptake at 2 h ([3]; mouse brain, 120 min, mean of four mice, range 1.1-1.6) was 1.3 %ID/g and the “Tissue distribution, % Dose/Organ” value ([3]; mouse heart, 5 min, mean of three mice, range 0.35-0.42) was 0.37 % Dose/Organ. The tissue uptake at 5 min ([3]; mouse heart, 5 min, mean of three mice, range 3.2-3.4) was 3.3 %ID/g, the “Tissue distribution, % Dose/Organ” value ([3]; mouse heart, 60 min, mean of three mice, range 0.064-0.076) was 0.072 % Dose/Organ and the tissue uptake at 1 h ([3]; mouse heart, 60 min, mean of three mice, range 0.59-0.65) was 0.61 %ID/g. The “Tissue distribution, % Dose/Organ” value ([3]; mouse heart, 120 min, mean of four mice, range 0.020-0.030) was 0.026 % Dose/Organ, the tissue uptake at 2 h ([3]; mouse heart, 120 min, mean of four mice, range 0.18-0.35) was 0.24 %ID/g and the “Tissue distribution, % Dose/Organ” value ([3]; mouse kidneys, 5 min, mean of three mice, range 4.2-4.8) was 4.5 % Dose/Organ. For the same molecule, the tissue uptake at 5 min ([3]; mouse kidneys, 5 min, mean of three mice, range 11-13) was 12 %ID/g, the “Tissue distribution, % Dose/Organ” value ([3]; mouse kidneys, 60 min, mean of three mice, range 1.1-1.3) was 1.2 % Dose/Organ and the tissue uptake at 1 h ([3]; mouse kidneys, 60 min, mean of three mice, range 3.0-4.0) was 3.4 %ID/g. For the same molecule, the “Tissue distribution, % Dose/Organ” value ([3]; mouse kidneys, 120 min, mean of four mice, range 0.40-0.57) was 0.46 % Dose/Organ, the tissue uptake at 2 h ([3]; mouse kidneys, 120 min, mean of four mice, range 1.2-1.8) was 1.5 %ID/g and the tissue uptake at 5 min ([3]; mouse liver, 5 min, mean of three mice, range 5.2-5.7) was 5.4 %ID/g. The “Tissue distribution, % Dose/Organ” value ([3]; mouse liver, 5 min, mean of three mice, range 8.2-8.3) was 8.2 % Dose/Organ, the tissue uptake at 1 h ([3]; mouse liver, 60 min, mean of three mice, range 2.4-3.4) was 2.9 %ID/g and the “Tissue distribution, % Dose/Organ” value ([3]; mouse liver, 60 min, mean of three mice, range 3.8-4.1) was 4.0 % Dose/Organ. For the same molecule, the tissue uptake at 2 h ([3]; mouse liver, 120 min, mean of four mice, range 1.2-1.9) was 1.4 %ID/g, the “Tissue distribution, % Dose/Organ” value ([3]; mouse liver, 120 min, mean of four mice, range 1.5-1.8) was 1.6 % Dose/Organ and the “Tissue distribution, % Dose/Organ” value ([3]; mouse lungs, 5 min, mean of three mice, range 2.0-2.1) was 2.0 % Dose/Organ. The tissue uptake at 5 min ([3]; mouse lungs, 5 min, mean of three mice, range 11-14) was 13 %ID/g, the “Tissue distribution, % Dose/Organ” value ([3]; mouse lungs, 60 min, mean of three mice, range 0.24-0.29) was 0.27 % Dose/Organ and the tissue uptake at 1 h ([3]; mouse lungs, 60 min, mean of three mice, range 1.6-2.3) was 1.9 %ID/g. The “Tissue distribution, % Dose/Organ” value ([3]; mouse lungs, 120 min, mean of four mice, range 0.09-0.16) was 0.12 % Dose/Organ, the tissue uptake at 2 h ([3]; mouse lungs, 120 min, mean of four mice, range 0.70-1.50) was 0.95 %ID/g and the “Tissue distribution, % Dose/Organ” value ([3]; mouse ovaries, 60 min, mean of three mice, range 0.028-0.057) was 0.040 % Dose/Organ. For the same molecule, the “Tissue distribution, % Dose/Organ” value ([3]; mouse ovaries, 120 min, mean of four mice, range 0.009-0.022) was 0.014 % Dose/Organ, the “Tissue distribution, % Dose/Organ” value ([3]; mouse small intestine, 5 min, mean of three mice, range 3.2-6.8) was 5.3 % Dose/Organ and the tissue uptake at 5 min ([3]; mouse small intestine, 5 min, mean of three mice, range 4.0-4.8) was 4.3 %ID/g. For the same molecule, the “Tissue distribution, % Dose/Organ” value ([3]; mouse small intestine, 60 min, mean of three mice, range 1.6-3.6) was 2.9 % Dose/Organ, the tissue uptake at 1 h ([3]; mouse small intestine, 60 min, mean of three mice, range 1.7-3.4) was 2.5 %ID/g and the “Tissue distribution, % Dose/Organ” value ([3]; mouse small intestine, 120 min, mean of four mice, range 0.7-1.9) was 1.3 % Dose/Organ. For the same molecule, the tissue uptake at 2 h ([3]; mouse small intestine, 120 min, mean of four mice, range 0.8-1.7) was 1.3 %ID/g, the “Tissue distribution, % Dose/Organ” value ([3]; mouse spleen, 5 min, mean of three mice, range 0.82-1.05) was 0.95 % Dose/Organ and the tissue uptake at 5 min ([3]; mouse spleen, 5 min, mean of three mice, range 4.7-6.5) was 5.8 %ID/g. For the same molecule, the “Tissue distribution, % Dose/Organ” value ([3]; mouse spleen, 60 min, mean of three mice, range 0.25-0.28) was 0.26 % Dose/Organ, the tissue uptake at 1 h ([3]; mouse spleen, 60 min, mean of three mice, range 1.1-1.9) was 1.6 %ID/g and the “Tissue distribution, % Dose/Organ” value ([3]; mouse spleen, 120 min, mean of four mice, range 0.043-0.073) was 0.062 % Dose/Organ. For the same molecule, the tissue uptake at 2 h ([3]; mouse spleen, 120 min, mean of four mice, range 0.40-0.73) was 0.57 %ID/g, the remaining at 1 h ([4]; rat cerebellum, ind. values 90, 90) was 90% and the remaining at 4 h ([4]; rat cerebellum, ind. values 85, 85) was 85%. The remaining at 1 h ([4]; rat striatum, ind. values 95, 96) was 96%, the remaining at 4 h ([4]; rat striatum, ind. values 98, 97) was 98% and the “metabolism in the rat brain” value ([4]; rat brain) was “very little metabolism”.

— patent USH1209H, “No-carrier-added (18F)-N-methylspiroperidol” (The United States of America as represented by the United …, priority 1985, dated 1993)
